Results on one molecule are retold here after ChEMBL document CHEMBL1155555, “Matemone, a new bioactive bromine-containing oxindole alkaloid from the indian ocean sponge Iotrochota purpurea” (J Nat Prod, 2000).

SMILES strings stand for the structures. Values after ≈ are worked out from the molar mass of the structure shown. Active and inactive are the calls of the source. The rule behind the calls is not given here.

For experiment [1], the system named is Staphylococcus aureus. Briefly: Antibacterial activity against Staphylococcus aureus at 200 ug/disk after 18 hrs by paper disk agar diffusion assay. The experiment is classed as functional. Conditions: read-out: IZ. (A growth-free zone around the sample is the usual read-out of agar diffusion tests.)
The subject of experiment [2] is Staphylococcus aureus. As to the kind of experiment: Antibacterial activity against Staphylococcus aureus at 100 ug/disk after 18 hrs by paper disk agar diffusion assay. The experiment is classed as functional. Conditions: read-out: IZ.
Experiment [3] deals with Staphylococcus aureus. As to the kind of experiment: Antibacterial activity against Staphylococcus aureus at 50 ug/disk after 18 hrs by paper disk agar diffusion assay. Conditions: read-out: IZ. The experiment is classed as functional.
Another experiment relates to Candida albicans. Briefly: Antifungal activity against Candida albicans at 200 ug/disk after 18 hrs by paper disk agar diffusion assay. The experiment is classed as functional, organism-based.
The subject of a further experiment is DNA. As to the kind of experiment: Binding affinity to calf thymus DNA by DNA intercalating assay relative to ethidium bromide. The experiment is classed as nucleic-acid assay. Conditions: Bos taurus.
A short description of experiment [4]: Cytotoxicity against human NSCLC-N6 L16. The experiment is classed as functional.
The subject of the next experiment is MIA PaCa-2. As to the kind of experiment: Cytotoxicity against human PaCa2. Type of experiment: functional, cell-based.
In a further experiment the test system is DU-145. As to the kind of experiment: Cytotoxicity against human DU145. Type of experiment: functional, cell-based.
For the next experiment, the system named is Paracentrotus lividus. As to the kind of experiment: Inhibition of sea urchin egg division.

As for `COC1(CO)Nc2cc(Br)ccc2C1=O` (centres undefined) [MATEMONE], the zone of inhibition at 200 µg/disc in the experiment with Staphylococcus aureus [1] worked out at 11 mm. The zone of inhibition at 100 µg/disc in the experiment with Staphylococcus aureus [2] was 9 mm. Besides, in the experiment with Staphylococcus aureus [3], the zone of inhibition at 50 µg/disc was found to be 7 mm. Further, the result with Candida albicans was inactive. Also, the Activity in the experiment on DNA came to 40%. In addition, the IC50 (commonly the concentration at which inhibition is half-maximal) turned out to be 30 µg/mL (≈ 110 µM) in experiment [4], 24 µg/mL (≈ 88.2 µM) with MIA PaCa-2, 27 µg/mL (≈ 99.2 µM) in the experiment with DU-145 and 35 µg/mL (≈ 129 µM) with Paracentrotus lividus.
